The values that follow come from patent publication US12285431B2, “Treatment of Rb-negative tumors using topoisomerase inhibitors in combination with cyclin dependent kinase 4/6 inhibitors” (G1 Therapeutics, Inc., priority 2014, dated 2025).

The test system of test [1] is ZR-75-1 (breast ductal carcinoma, Rb-positive). The test can be described thus: Cellular proliferation assay (CellTiter-Glo), ZR-75-1. Type of test: cell-based. Conditions: Homo sapiens, ZR-75-1, 144 h, cell viability after six days, read-out: ZR75-1 Cellular EC50. Here is the method: (§1) Further cellular proliferation assays were conducted using the following cancer cell lines: MCF7 (breast adenocarcinoma—Rb-positive), ZR-75-1 (breast ductal carcinoma—Rb-positive), H69 (human small cell lung cancer—Rb-negative) cells, or A2058 (human metastatic melanoma cells—Rb-negative). These cells were seeded in Costar (Tewksbury, Massachusetts) 3093 96 well tissue culture treated white walled/clear bottom plates. Cells were treated with the compounds of Table 1 as nine point dose response dilution series from 10 uM to 1 nM. Cells were exposed to compounds and then cell viability was determined after either four (H69) or six (MCF7, ZR75-1, A2058) days as indicated using the CellTiter-Glo® luminescent cell viability assay (CTG; Promega, Madison, Wisconsin, United States of America) following the manufacturer's recommendations. Plates were read on BioTek (Winooski, Vermont) Syngergy2 multi-mode plate reader. The Relative Light Units (RLU) were plotted as a result of variable molar concentration and data was analyzed using Graphpad (LaJolla, California) Prism 5 statistical software to determine the EC50 for each compound.

For test [2], the system named is MCF7 (breast adenocarcinoma, Rb-positive). Briefly: Cellular proliferation assay (CellTiter-Glo), MCF7. It is filed as cell-based. Conditions: Homo sapiens, MCF7, 144 h, cell viability after six days. Here is the method: as §1
The subject of test [3] is H69 (human small cell lung cancer, Rb-negative) cells. The test can be described thus: Cellular proliferation assay (CellTiter-Glo), H69. It is filed as cell-based. Conditions: NCI-H69, 96 h, cell viability after four days. Here is the method:
as §1

For the next test, the system named is HS68 cells. Briefly: G1 arrest (cellular G1 and S-phase) assay, propidium iodide flow cytometry. Type of test: cell-based, human. Conditions: Homo sapiens, Hs68, HS68 cells. Here is the method: HS68 cells (human skin fibroblast cell line (Rb-positive)) were stained with propidium iodide staining solution and run on Dako Cyan Flow Cytometer. The fraction of cells in G0-G1 DNA cell cycle versus the fraction in S-phase DNA cell cycle was determined using FlowJo 7.2.2 analysis.
The compounds listed in Table 1 were tested for their ability to arrest HS68 cells at the G1 phase of the cell cycle.

Test [4] relates to A2058 (human metastatic melanoma cells, Rb-negative). Briefly: Cellular proliferation assay (CellTiter-Glo), A2058. It is filed as cell-based. Particulars: A2058, 144 h, cell viability after six days. The protocol: as §1
Another test deals with CDK4/CyclinD1 (Homo sapiens, UniProt P11802). The test can be described thus: CDK4/cyclinD1 kinase assay (Nanosyn, Caliper microfluidic kinase detection). It is filed as biochemical. Conditions: Table 2; 12-point dose-response, ATP at Km (200 μM), 10 hr; read-out: CDK4/CycD1 IC50. Here is the method:
The assays were performed using microfluidic kinase detection technology (Caliper Assay Platform). The compounds were tested in 12-point dose-response format in singlicate at Km for ATP. Phosphoacceptor substrate peptide concentration used was 1 μM for all assays and Staurosporine was used as the reference compound for all assays. Specifics of each assay are as described below:
CDK4/CyclinD1: Enzyme concentration: 1 nM; ATP concentration: 200 μM; Incubation time: 10 hr.

Chain of CDK4/CyclinD1 (P11802 whole entry, species assumed): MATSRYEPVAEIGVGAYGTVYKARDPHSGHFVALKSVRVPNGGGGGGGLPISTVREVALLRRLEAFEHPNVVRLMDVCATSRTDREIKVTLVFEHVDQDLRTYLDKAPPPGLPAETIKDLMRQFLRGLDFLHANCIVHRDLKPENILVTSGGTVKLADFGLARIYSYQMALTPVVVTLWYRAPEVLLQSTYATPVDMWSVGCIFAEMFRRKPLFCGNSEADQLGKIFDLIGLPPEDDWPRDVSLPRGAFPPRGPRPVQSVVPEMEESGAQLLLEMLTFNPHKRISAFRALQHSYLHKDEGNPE
Chain of CDK4/CyclinD1 (P24385 whole entry partner, species assumed): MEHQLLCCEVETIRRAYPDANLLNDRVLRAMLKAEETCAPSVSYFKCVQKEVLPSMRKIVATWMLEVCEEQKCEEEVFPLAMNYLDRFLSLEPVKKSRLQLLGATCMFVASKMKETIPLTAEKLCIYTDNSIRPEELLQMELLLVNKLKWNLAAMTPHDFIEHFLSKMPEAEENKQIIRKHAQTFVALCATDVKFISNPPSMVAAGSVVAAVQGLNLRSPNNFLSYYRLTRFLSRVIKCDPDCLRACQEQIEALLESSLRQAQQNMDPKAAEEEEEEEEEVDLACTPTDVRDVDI

For `C[C@@H]1CN(c2ccc(Nc3ncc4cc5n(c4n3)C3(CCCCC3)CNC5=O)nc2)CCN1` [V], the concentration giving a half-maximal response (EC50) in test [1] is 29 nM; in test [2], 50 nM; in test [3] it was > 3000 nM; in the test with HS68 cells, 70 nM; in test [4], 1350 nM. In addition, the IC50 at CDK4/CyclinD1 stood at 2.9 nM.

`C[C@@H]1CN(c2ccc(Nc3ncc4cc5n(c4n3)C3(CCCCC3)CNC5=O)nc2)CCN1C[C@@H](C)O` [J]: the EC50 in test [1] was 82 nM; in test [2] it was 70 nM; in test [3] it was > 3000 nM; in the test with HS68 cells, 110 nM; in test [4], > 3000 nM.

With `O=C1NCC2(CCCCC2)n2c1cc1cnc(Nc3ccc(N4CCC(N5CCCCC5)CC4)cn3)nc12` [N], the EC50 is 24 nM in test [1]; 28 nM in test [2]; > 3000 nM in test [3]; 25 nM in the test with HS68 cells; 1440 nM in test [4]. For the same compound, the IC50 on CDK4/CyclinD1 stood at 1 nM.

In the case of `CCOCCN1CCN(c2ccc(Nc3ncc4cc5n(c4n3)C3(CCCC3)CNC5=O)nc2)CC1` [MMM], the EC50 in test [1] is 141 nM; in test [2], 134 nM; in test [3] it was > 3000 nM; in the test on HS68 cells it was 200 nM; in test [4], > 3000 nM.

On to `CN1CCN(c2ccc(Nc3ncc4cc5n(c4n3)C3(CCCCC3)CNC5=O)nc2)CC1(C)C` [D], for which the EC50 in test [1] worked out at 46 nM; in test [2] it was 57 nM; in test [3] it was 2910 nM; with HS68 cells, 50 nM; in test [4] it was 1670 nM. Further, the IC50 at CDK4/CyclinD1 turned out to be 0.9 nM.

Turning to `CN(C)C1CCN(c2ccc(Nc3ncc4cc5n(c4n3)C3(CCCCC3)CNC5=O)nc2)CC1` [O], the EC50 in test [1] was 29 nM; in test [2], 56 nM; in test [3], > 3000 nM; with HS68 cells, 40 nM; in test [4], 2670 nM.

On to `C[C@H]1CN(c2ccc(Nc3ncc4cc5n(c4n3)C3(CCCCC3)CNC5=O)nc2)CCN1CC1CC1` [B], for which the EC50 in test [1] worked out at 245 nM; in test [2], 201 nM; with HS68 cells, 90 nM. Also, the IC50 at CDK4/CyclinD1 was determined as 0.4 nM.

As for `CC1(C)CN(c2ccc(Nc3ncc4cc5n(c4n3)C3(CCCCC3)CNC5=O)nc2)CCN1CC1CC1` [H], the EC50 stood at 120 nM in test [1]; 85 nM in test [2]; 2040 nM in test [3]; 85 nM in the test with HS68 cells; 1310 nM in test [4]. In addition, the IC50 at CDK4/CyclinD1 was 1.5 nM.

`CC(C)N1CCN(C(=O)c2ccc(Nc3ncc4cc5n(c4n3)C3(CCCCC3)CNC5=O)nc2)CC1` [II]: the EC50 in test [1] was 33 nM; in test [2], 94 nM; in test [3] it was > 3000 nM; in the test with HS68 cells, 40 nM; in test [4], > 3000 nM. Further, on CDK4/CyclinD1, the IC50 came out at 2 nM.

Regarding `CC(C)N1CCN(c2ccc(Nc3ncc4cc5n(c4n3)C3(CCCCC3)CNC5=O)nc2)CC1C` (stereo not shown) [PP], the EC50 in test [1] turned out to be 66 nM; in test [2] it was 164 nM; in the test with HS68 cells, 100 nM. Further, the IC50 at CDK4/CyclinD1 was 3.1 nM.

Regarding `CC(C)C1CN(c2ccc(Nc3ncc4cc5n(c4n3)C3(CCCCC3)CNC5=O)nc2)CCN1` (stereo not shown) [E], the concentration giving a half-maximal response (EC50) was 62 nM in test [1]; 53 nM in test [2]; 2580 nM in test [3]; 75 nM in the test with HS68 cells; 1370 nM in test [4]. Further, the IC50 on CDK4/CyclinD1 was 1 nM.

For `CN(C)C1CCN(c2ccc(Nc3ncc4cc5n(c4n3)C3(CCCCC3)CNC5=O)nn2)CC1` [SS], the 50% effective concentration (EC50) was 53 nM in test [1]; 94 nM in test [2]; 2950 nM in test [3]; 80 nM in the test with HS68 cells; 1660 nM in test [4]. Also, on CDK4/CyclinD1, the IC50 is 0.8 nM.

For `CC1(C)CN(c2ccc(Nc3ncc4cc5n(c4n3)C3(CCCCC3)CNC5=O)nc2)CCN1` [I], the EC50 came out at 40 nM in test [1]; 61 nM in test [2]; 2950 nM in test [3]; 80 nM in the test on HS68 cells; 1060 nM in test [4]. Also, at CDK4/CyclinD1, the IC50 came out at 2 nM.

Take `C[C@H](O)CN1CCN(c2ccc(Nc3ncc4cc5n(c4n3)C3(CCCCC3)CNC5=O)nc2)CC1` [A]: the EC50 in test [1] is 44 nM; in test [2], 75 nM; in test [3], > 3000 nM; in the test with HS68 cells it was 110 nM. The IC50 on CDK4/CyclinD1 turned out to be 4.2 nM.

As to `C[C@H](O)CN1CCN(c2ccc(Nc3ncc4cc5n(c4n3)C3(CCCCC3)CNC5=O)nc2)C[C@@H]1C` [C], the EC50 in test [1] came out at 73 nM; in test [2], 88 nM; with HS68 cells, 95 nM. Also, the IC50 at CDK4/CyclinD1 came out at 1.4 nM.

As to `CC(C)N1CCN(Cc2ccc(Nc3ncc4cc5n(c4n3)C3(CCCCC3)CNC5=O)nc2)CC1` [EE], the values for the EC50 (in test [1]; in test [2]; in the test with HS68 cells) were 203 nM, 216 nM and 125 nM, respectively. In addition, the IC50 on CDK4/CyclinD1 was 3.8 nM.

`C[C@@H]1CN(c2ccc(Nc3ncc4cc5n(c4n3)C3(CCCCC3)CNC5=O)nc2)C[C@H](C)N1` [P]: the concentration for a half-maximal effect (EC50) in test [1] is 43 nM; in test [2] it was 60 nM; in test [3], > 3000 nM; in the test with HS68 cells, 30 nM; in test [4] it was > 3000 nM. For the same compound, the IC50 on CDK4/CyclinD1 was 3.3 nM.

`CCN(CC)C1CCN(c2ccc(Nc3ncc4cc5n(c4n3)C3(CCCCC3)CNC5=O)nc2)CC1` [CC]: the EC50 in test [1] was 38 nM; in test [2] it was 50 nM; in test [3] it was > 3000 nM; with HS68 cells, 90 nM; in test [4], > 3000 nM. In addition, on CDK4/CyclinD1, the IC50 turned out to be 1.6 nM.

With `CN(C)C1CCN(c2ccc(Nc3ncc4cc5n(c4n3)C3(CCCC3)CNC5=O)nc2)CC1` [YY], the 50% effective concentration (EC50) was 581 nM in test [1], 257 nM in test [2] and 175 nM with HS68 cells. Also, the IC50 on CDK4/CyclinD1 amounted to 4.6 nM.

Turning to `CC(C)N1CCN(c2ccc(Nc3ncc4cc5n(c4n3)C3(CCCCC3)CNC5=O)nc2)C[C@@H]1C` [AA], the EC50 was 47 nM in test [1], 47 nM in test [2], > 3000 nM in test [3] and 70 nM in the test with HS68 cells. The IC50 on CDK4/CyclinD1 was 0.5 nM.

Take `C[C@H](O)CN1[C@H](C)CN(c2ccc(Nc3ncc4cc5n(c4n3)C3(CCCCC3)CNC5=O)nc2)C[C@@H]1C` [Z]: the EC50 in test [1] came out at 54 nM; in test [2], 141 nM; in the test with HS68 cells it was 110 nM. The IC50 at CDK4/CyclinD1 was determined as 3.2 nM.

`CC1CN(c2ccc(Nc3ncc4cc5n(c4n3)C3(CCCCC3)CNC5=O)nc2)CC(C)N1CC1CC1` (stereo not shown) [OO]: the EC50 in test [1] was 229 nM; in test [2] it was 120 nM; in test [3], > 3000 nM; in the test on HS68 cells, 95 nM; in test [4], > 3000 nM.

With `CC1CN(c2ccc(Nc3ncc4cc5n(c4n3)C3(CCCCC3)CNC5=O)nc2)CCN1CC(C)(C)O` (stereo not shown) [W], the EC50 is 294 nM in test [2], > 3000 nM in test [3], 160 nM with HS68 cells and > 3000 nM in test [4]. For the same compound, on CDK4/CyclinD1, the IC50 came to 2.7 nM.

As for `CCN(CC)C1CCN(C2CCN(c3ccc(Nc4ncc5cc6n(c5n4)C4(CCCCC4)CNC6=O)nc3)CC2)C1` (stereo not shown) [RR], the EC50 in test [2] was found to be 72 nM; in test [3], 2890 nM; with HS68 cells it was 90 nM; in test [4] it was 1620 nM. On CDK4/CyclinD1, the IC50 came to 1.2 nM.
